Activity data for 1 compound are collected here from ChEMBL document CHEMBL6115048, “Uncovering α-Selectivity for Liver X Receptor Agonists for Lipotoxic Cancer Therapies” (J Med Chem, 2025).

Calls of active or inactive are those of the source. The calls are words filed in the database; no cut-off is given here.

Series [1] addresses T1, Peroxisome proliferator-activated receptor gamma (Homo sapiens) (UniProt P37231).
T1 sequence (whole entry): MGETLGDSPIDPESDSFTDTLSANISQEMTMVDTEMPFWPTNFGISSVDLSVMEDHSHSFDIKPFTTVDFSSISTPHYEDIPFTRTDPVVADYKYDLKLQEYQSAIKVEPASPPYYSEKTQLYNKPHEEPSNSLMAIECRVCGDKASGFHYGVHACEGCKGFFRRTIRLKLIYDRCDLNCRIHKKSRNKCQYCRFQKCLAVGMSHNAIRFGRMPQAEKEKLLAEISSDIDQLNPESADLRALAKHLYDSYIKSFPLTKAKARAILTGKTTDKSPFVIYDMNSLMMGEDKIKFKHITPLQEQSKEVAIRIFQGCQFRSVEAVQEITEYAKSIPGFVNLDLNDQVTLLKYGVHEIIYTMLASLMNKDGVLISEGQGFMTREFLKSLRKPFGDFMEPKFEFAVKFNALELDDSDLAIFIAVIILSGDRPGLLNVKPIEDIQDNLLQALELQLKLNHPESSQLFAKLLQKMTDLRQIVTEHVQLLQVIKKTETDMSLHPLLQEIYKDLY
The series is described as follows: Agonist activity at PPARgamma (unknown origin) transfected in human HepG2 cells co-transfected with renilla reniformis luciferase reporter at 10 uM incubated for 24 hrs by dual-luciferase reporter gene assay. The class given is cell-based.

Series [2] concerns the target T2, Vitamin D3 receptor (Homo sapiens) (UniProt P11473).
T2 sequence (whole entry): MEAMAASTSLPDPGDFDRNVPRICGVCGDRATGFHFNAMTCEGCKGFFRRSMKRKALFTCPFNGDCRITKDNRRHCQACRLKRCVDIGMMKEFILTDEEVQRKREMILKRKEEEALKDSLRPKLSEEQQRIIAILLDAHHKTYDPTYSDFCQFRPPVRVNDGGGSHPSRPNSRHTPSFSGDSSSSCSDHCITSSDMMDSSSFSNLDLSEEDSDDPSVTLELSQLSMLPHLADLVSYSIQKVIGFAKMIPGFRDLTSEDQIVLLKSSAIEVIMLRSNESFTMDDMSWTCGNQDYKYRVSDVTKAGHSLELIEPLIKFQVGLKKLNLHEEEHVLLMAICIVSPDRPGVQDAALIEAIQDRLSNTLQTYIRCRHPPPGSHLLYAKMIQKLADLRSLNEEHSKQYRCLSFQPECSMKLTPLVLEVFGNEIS
The series is described as follows: Agonist activity at VDR (unknown origin) transfected in human HepG2 cells co-transfected with renilla reniformis luciferase reporter at 10 uM incubated for 24 hrs by dual-luciferase reporter gene assay. The class given is cell-based. On the technique in general: Reporter assays use an easily measured gene product as a stand-in for the process of interest.

The subject of a further series is AML12. The series is described as follows: Cytotoxicity against mouse AML12 cells assessed as reduction in cell viability at 0.01 to 100 uM measured after 5 days in presence of sorafenib by CellTiter-Glo assay. Format: toxicity, cell-based. As to conditions: aml12, 120 h, dose 0.01-100 µM, time 5 day. For orientation: Cellular ATP, detected with luciferase, serves as a proxy for viable cell number.

In series [3] the target is T3, Aryl hydrocarbon receptor (Homo sapiens, UniProt P35869).
T3 sequence (P35869 whole entry): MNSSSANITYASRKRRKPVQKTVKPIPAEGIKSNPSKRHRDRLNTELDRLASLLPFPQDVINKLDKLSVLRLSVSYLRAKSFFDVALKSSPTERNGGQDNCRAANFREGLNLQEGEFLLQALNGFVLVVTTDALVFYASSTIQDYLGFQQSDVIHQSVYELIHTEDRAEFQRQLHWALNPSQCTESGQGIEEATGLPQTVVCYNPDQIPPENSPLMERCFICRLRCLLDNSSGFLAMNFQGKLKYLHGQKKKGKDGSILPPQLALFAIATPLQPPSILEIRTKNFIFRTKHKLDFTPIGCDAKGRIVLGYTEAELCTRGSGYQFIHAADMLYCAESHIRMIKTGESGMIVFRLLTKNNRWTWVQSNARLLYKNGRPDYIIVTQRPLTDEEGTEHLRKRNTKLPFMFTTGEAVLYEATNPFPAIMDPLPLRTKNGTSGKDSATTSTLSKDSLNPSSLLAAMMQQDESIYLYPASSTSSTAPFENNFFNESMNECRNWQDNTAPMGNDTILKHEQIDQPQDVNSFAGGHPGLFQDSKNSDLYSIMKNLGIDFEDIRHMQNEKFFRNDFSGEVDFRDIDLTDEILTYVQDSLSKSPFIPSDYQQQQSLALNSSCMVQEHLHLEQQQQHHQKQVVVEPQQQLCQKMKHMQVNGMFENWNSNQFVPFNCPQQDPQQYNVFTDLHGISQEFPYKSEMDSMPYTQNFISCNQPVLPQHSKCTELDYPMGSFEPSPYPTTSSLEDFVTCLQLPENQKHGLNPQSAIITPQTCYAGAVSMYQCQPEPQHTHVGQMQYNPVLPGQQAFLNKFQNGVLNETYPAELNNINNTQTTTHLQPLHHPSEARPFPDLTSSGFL
The series is described as follows: Agonist activity at AhR (unknown origin) transfected in human HepG2 cells co-transfected with renilla reniformis luciferase reporter at 10 uM incubated for 24 hrs by dual-luciferase reporter gene assay. As to conditions: hepg2, 24 h. The class given is cell-based.

`O=C1C(Nc2ccc(N3CCCCC3)cc2)=C(c2ccccc2)C(=O)N1Cc1ccccc1`: the result in series [1] and in series [2] was inactive. Moreover, the figures for the Activity entry (with AML12; in series [3]) were “Toxic” and “Not_active”, respectively.
